{"source": "patent US20060052435A1", "about": "“Selective dopamin d3 receptor agonists for the treatment of sexual dysfunction” (priority 2001, published 2006)", "key": {"New Zealand rabbits": {"system": "New Zealand rabbits", "assay": "male and female anaesthetised rabbit, pelvic nerve stimulation", "format": "in vivo", "experimental": "1.1.1 Male and Female Anaesthetised Rabbit Methodology\nMale and female New Zealand rabbits (˜2.5 kg) were pre-medicated with a combination of Medetomidine (Domitor®) 0.5 ml/kg i.m., and Ketamine (Vetalar®) 0.25 ml/kg i.m. whilst maintaining oxygen intake via a face mask. The rabbits were tracheotomised using a Portex™ uncuffed endotracheal tube 3 ID., connected to ventilator and maintained at a ventilation rate of 30-40 breaths per minute, with an approximate tidal volume of 18-20 ml, and a maximum airway pressure of 10 cm H2O. Anaesthesia was then switched to Isoflurane and ventilation continued with O2 at 2 l/min. The right marginal ear vein was cannulated using a 23 G or 24 G catheter, and Lactated Ringer solution perfused at 0.5 ml/min. The rabbit was maintained at 3% Isoflurane during invasive surgery, dropping to 2% for maintenance anaesthesia. The left jugular vein was exposed, isolated and then cannulated with a PVC catheter (17 G) for the infusion of drugs and compounds.\nThe left groin area of the rabbit was shaved and a vertical incision was made approximately 5 cm in length along the thigh. The femoral vein and artery were exposed, isolated and then cannulated with a PVC catheter (17 G) for the infusion of drugs and compounds. Cannulation was repeated for the femoral artery, inserting the catheter to a depth of 10 cm to ensure that the catheter reached the abdominal aorta. This arterial catheter was linked to a Gould system to record blood pressure. Samples for blood gas analysis were also taken via the arterial catheter. Systolic and diastolic pressures were measured, and the mean arterial pressure calculated using the formula (diastolic×2+systolic)÷3. Heart rate was measured via the pulse oxymeter and Po-ne-mah data acquisition software system (Ponemah Physiology Platform, Gould Instrument Systems, Inc.).\nA ventral midline incision was made into the abdominal cavity. The incision was about 5 cm in length just above the pubis. The fat and muscle was bluntly dissected away to reveal the hypogastric nerve which runs down the body cavity. It was essential to keep close to the side curve of the pubis wall in order to avoid damaging the femoral vein and artery which lie above the pubis. The sciatic and pelvic nerves lie deeper and were located after further dissection on the dorsal side of the rabbit. Once the sciatic nerve is identified, the pelvic nerve was easily located. The term pelvic nerve is loosely applied; anatomy books on the subject fail to identify the nerves in sufficient detail. However, stimulation of the nerve causes an increase in vaginal and clitoral blood flow in females and in intracavernosal pressure and cavernosal blood flow in males, and innervation of the pelvic region. […]"}, "telemetry rats": {"system": "telemetry rats", "assay": "rat telemetry model of erection (intracavernosal pressure)", "format": "in vivo", "experimental": "Erectile responses were recorded by measuring intracavernosal pressure and/or clitoral/vaginal blood flow using surgically implanted telemetric device. The specific details of the surgical procedures, data acquisition and analysis can be found in detail in Bernabe J, Rampin O, Sachs B D, Giuliano F. Intracavernous pressure during erection in rats: an integrative approach based on telemetric recording. Am. J. Physiol."}, "[1]": {"target": "human dopamine D2 long receptor (Homo sapiens, UniProt P14416)", "sequence (P14416 whole entry)": "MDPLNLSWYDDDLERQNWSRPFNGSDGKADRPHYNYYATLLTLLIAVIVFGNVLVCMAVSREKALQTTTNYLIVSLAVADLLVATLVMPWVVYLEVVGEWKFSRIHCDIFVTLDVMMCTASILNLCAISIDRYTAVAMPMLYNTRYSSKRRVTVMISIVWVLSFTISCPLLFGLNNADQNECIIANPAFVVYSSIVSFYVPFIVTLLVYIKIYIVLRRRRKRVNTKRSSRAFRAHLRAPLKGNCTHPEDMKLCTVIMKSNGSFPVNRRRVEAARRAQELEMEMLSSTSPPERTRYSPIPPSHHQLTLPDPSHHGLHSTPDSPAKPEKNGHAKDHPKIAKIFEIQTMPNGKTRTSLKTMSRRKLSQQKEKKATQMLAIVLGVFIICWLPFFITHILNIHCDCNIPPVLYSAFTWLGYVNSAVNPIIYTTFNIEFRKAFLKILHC"}}, "data": [{"smiles": "CCCN1CCO[C@H](c2cccc(O)c2)C1.Cl", "note": "[Example 8, R-(−)-3-(4-Propylmorpholin-2-yl)phenol hydrochloride]", "values": [{"measurement": "penile intracavernosal pressure and cavernosal blood flow in male rabbits", "setting": "New Zealand rabbits", "result": "beneficially enhanced"}, {"measurement": "vaginal and clitoral blood flow in female rabbits", "setting": "New Zealand rabbits", "result": "beneficially enhanced"}, {"measurement": "erections/10 minutes in the telemetry rat", "setting": "telemetry rats; 10 μg/kg s.c.", "result": "2.25±0.25", "unit": "erections/10 minutes"}, {"measurement": "free plasma concentration at which prosexual effects were observed", "setting": "telemetry rats; rat telemetry model, FIG. 1", "result": "circa 1 nM"}, {"measurement": "EC50", "setting": "[1]", "result": 4.97, "unit": "µM"}]}]}
